Consider 2 compounds from patent US7205329B2, “Modulators of CRTH2 activity” (Microbia, Inc., priority 2003, dated 2007).

One experiment deals with neutrophils. The experiment is described as follows: CD11b expression assay, neutrophil control for CRTH2 agonist activity. In kind it is cell-based, human. Conditions: leukocytes incubated with test compound 10 min at room temperature; flow cytometry. The text has this: CRTH2 agonists increase the expression of CD11b on eosinophils. […] They do, however, express receptors for other lipid mediators, including 5-oxo-6,8,11,14-eicosatetraenoic acid (5-oxo-ETE), leukotriene B4 (LTB4), and platelet activating factor. Therefore, any increased expression of CD11b by neutrophils is likely to be caused by an activity other than activation of CRTH2. Accordingly, preferred compounds increase CD11b expression on eosinophils, but not on neutrophils.
The potential CRTH2 agonist activity of certain compounds was tested using a CD11b expression assay using essentially the method described by Monneret et al. (J Pharmacol Exp Ther 304:349–55, 2003), and the results of this analysis are presented in FIG. 1 where the results of two separate experiments are reported.
Briefly, leukocytes (0.5 ml; 10^6/ml cells) in PBS containing 0.9 mM CaCl2 and 0.5 mM MgCl2) were incubated with a test compound at room temperature for 10 min. The incubations were terminated by the addition of ice-cold FACSFlow (BD Biosciences; Cat# 342003) and centrifugation (400 g for 5 min at 4° C.). […] The distribution of fluorescence intensities among 60,000 cells was measured by flow cytometry. Eosinophils were gated out on the basis of their granularity (high side scatter) and labeling with VLA-4 (PE fluorescence). CD11b was then measured in the eosinophil region on the basis of fluorescence due to FITC. […]
Background: In flow cytometry, cells or beads pass a laser one at a time.

In a further experiment the test system is CCR3. Conditions: Stubbs et al. 2002, J Biol Chem 277:26012–26020; cited from earlier work.

Take `CCCCCC=CCC=CCC=CC=CC(=O)CCCC(=O)O` [5-oxo-ETE, 5-oxo-6,8,11,14-eicosatetraenoic acid]: the “expression of CD11b on neutrophils” value with neutrophils is “increased expression of CD11b on neutrophils”. With `COc1ccc2c(c1)c(CC(=O)O)c(C)n2C(=O)c1ccc(Cl)cc1` [indomethacin], the “expression of CCR3, the receptor for eotaxin” value with CCR3 is “reduces expression of CCR3”.
